Assay results reported in patent US10065990B2, “Cyclic peptide compound, and preparation method, pharmaceutical composition and use thereof” (HANGZHOU GUANYU BIO-MEDICAL CO., LTD, priority 2013, dated 2018).
Where two headings read alike, the source gives them in different places.

How the values were obtained:
HDAC7 = target: T1, HDAC7 (Homo sapiens, UniProt Q8WUI4); assay: HDAC biochemical activity measurement (fluorescent substrate deacetylation);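 as to all read-outs here: fluorogenic deacetylation assay using acetyl-lysine substrate at 20 µM, enzyme and compound incubated 30 min at 37 °C, then developer added, fluorescence read at 360/460 nm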; settings: for IC50 HDAC7: 37° C. 30 minutes
T1 sequence (Q8WUI4 1-952): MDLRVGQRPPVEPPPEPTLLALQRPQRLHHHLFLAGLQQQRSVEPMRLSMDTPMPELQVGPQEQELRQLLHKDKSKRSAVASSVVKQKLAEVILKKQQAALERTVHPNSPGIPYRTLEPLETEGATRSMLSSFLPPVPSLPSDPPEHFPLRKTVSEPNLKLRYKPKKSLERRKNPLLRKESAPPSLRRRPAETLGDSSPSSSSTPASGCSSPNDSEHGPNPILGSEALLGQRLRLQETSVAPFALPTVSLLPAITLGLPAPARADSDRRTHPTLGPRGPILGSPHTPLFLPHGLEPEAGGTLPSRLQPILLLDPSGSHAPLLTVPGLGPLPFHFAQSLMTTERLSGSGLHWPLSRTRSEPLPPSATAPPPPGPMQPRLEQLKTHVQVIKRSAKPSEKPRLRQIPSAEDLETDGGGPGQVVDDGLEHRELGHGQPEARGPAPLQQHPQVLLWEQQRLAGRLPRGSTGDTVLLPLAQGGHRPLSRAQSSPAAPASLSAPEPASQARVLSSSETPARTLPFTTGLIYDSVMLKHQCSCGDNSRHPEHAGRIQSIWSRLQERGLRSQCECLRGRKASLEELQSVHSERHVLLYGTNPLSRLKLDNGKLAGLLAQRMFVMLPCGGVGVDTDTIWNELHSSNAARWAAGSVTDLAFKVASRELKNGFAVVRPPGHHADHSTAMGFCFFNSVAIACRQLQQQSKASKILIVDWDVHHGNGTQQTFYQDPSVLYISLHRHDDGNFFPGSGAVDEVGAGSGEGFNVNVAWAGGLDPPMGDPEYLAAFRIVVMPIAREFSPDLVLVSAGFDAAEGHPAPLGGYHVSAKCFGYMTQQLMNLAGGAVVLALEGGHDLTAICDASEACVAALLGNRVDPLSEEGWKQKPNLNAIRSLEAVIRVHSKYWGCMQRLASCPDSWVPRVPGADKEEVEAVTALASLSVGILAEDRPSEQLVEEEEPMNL

[1] = tested on: PANC-1 (Pac-1, human pancreatic cancer cells); assay: MTT cancer cell growth inhibition; format: cell-based; settings: Homo sapiens, PANC-1, 72 h, MTT, 72 hours incubation, read-out: GI50 PAN
Description: (§1) MTT assay principle is yellow MTT can penetrate membrane into the cell, succinic dehydrogenase of the mitochondria in living cells can make exogenous MTT reduction of insoluble in water of blue-violet acicular formazan for crystallization and deposition in the cell, crystallization can be dissolved dimethyl sulfoxide (DMSO) solution, detected its absorbance at 490 nm/570 nm wavelength by enzyme-linked immunosorbent assay, which can reflect the number of cells.
(§2) Using DMEM+10% FBS culture medium or using 1640+10% FBS culture, respectively.
(§3) a) Cells were seeded in 96-well plates with the inoculation of 1500/well, 190 μl/hole, 37° C., 5% of CO2 incubator overnight;
(§4) b) The next day each well was added 10 μl of different drugs. The final concentration of drug was 10^−5˜10^−10M, three parallel holes; 37° C., 5% CO2 culture incubator for 72 hours incubation;
(§5) c) Per well was added 20 μl 5 mg/ml of MTT, 37° C., 5% CO2 culture incubator for 4 hours incubation;
(§6) d) The supernatant was discarded. Each well was added 100 μl of DMSO and oscillation;
(§7) e) 570 nm readings. Calculate cell viability. GI50 calculation based on the results.

[2] = tested on: KBM-5 (human chronic myelogenous leukemia); assay: MTT cancer cell growth inhibition; format: cell-based; settings: Homo sapiens, KBM5, 72 h, MTT, 72 hours incubation, KBM-5 cells; read-out: GI50 KBM-5
Description: as §1, §2, §3, §4, §5, §6, §7

[3] = tested on: SGC-7901 (human gastric cancer cells); assay: MTT cancer cell growth inhibition; format: cell-based; settings: Homo sapiens, SGC-7901, 72 h, MTT, 72 hours incubation, SGC-7901 cells; read-out: GI50 SGC-7901
Description: as §1, §2, §3, §4, §5, §6, §7

[4] = tested on: HT1080 (human fibrosarcoma cells); assay: MTT cancer cell growth inhibition; format: cell-based; settings: Homo sapiens, HT-1080, 72 h, MTT, 72 hours incubation, read-out: GI50 HT1
Description: as §1, §2, §3, §4, §5, §6, §7

[5] = tested on: DU145 (human prostate cancer cells); assay: MTT cancer cell growth inhibition; format: cell-based; settings: Homo sapiens, DU-145, 72 h, MTT, 72 hours incubation, read-out: GI50 Du1
Description: as §1, §2, §3, §4, §5, §6, §7

[6] = tested on: HCC827 (human non-small cell lung cancer cells); assay: MTT cancer cell growth inhibition; format: cell-based; settings: Homo sapiens, HCC827, 72 h, MTT, 72 hours incubation, HCC827 cells; read-out: GI50 HCC827
Description: as §1, §2, §3, §4, §5, §6, §7

[7] = tested on: Huh-7 (human hepatoma cells); assay: MTT cancer cell growth inhibition; format: cell-based; settings: Homo sapiens, Huh-7, 72 h, MTT, 72 hours incubation, Huh-7 cells; read-out: GI50 Huh-7
Description: as §1, §2, §3, §4, §5, §6, §7

[8] = tested on: MOLT-4 (human acute lymphoblastic leukemia cells); assay: MTT cancer cell growth inhibition; format: cell-based; settings: Homo sapiens, MOLT-4, 72 h, MTT, 72 hours incubation, read-out: GI50 Mol
Description: as §1, §2, §3, §4, §5, §6, §7

[9] = tested on: N-87 (human gastric cancer cells); assay: MTT cancer cell growth inhibition; format: cell-based; settings: Homo sapiens, 72 h, MTT, 72 hours incubation, N-87 cells; read-out: GI50 N-87
Description: as §1, §2, §3, §4, §5, §6, §7

[10] = tested on: lncap (prostate cancer cells); assay: MTT cancer cell growth inhibition; format: cell-based; settings: Homo sapiens, LNCaP, 72 h, MTT, 72 hours incubation, read-out: GI50 lnca
Description: as §1, §2, §3, §4, §5, §6, §7

[11] = tested on: A549 (human lung cancer cells); assay: MTT cancer cell growth inhibition; format: cell-based; settings: Homo sapiens, A549, 72 h, MTT, 72 hours incubation, read-out: GI50 A54
Description: as §1, §2, §3, §4, §5, §6, §7

[12] = tested on: Bel-7402 (human hepatoma cells); assay: MTT cancer cell growth inhibition; format: cell-based; settings: Homo sapiens, Bel-7402, 72 h, MTT, 72 hours incubation, Bel-7402 cells; read-out: GI50 Bel-7402
Description: as §1, §2, §3, §4, §5, §6, §7

[13] = tested on: MCF-7 (human breast cancer cells); assay: MTT cancer cell growth inhibition; format: cell-based; settings: Homo sapiens, MCF7, 72 h, 72 hours incubation, read-out: GI50 MCF
Description: as §1, §2, §3, §4, §5, §6, §7

[14] = tested on: K562 (human leukemia cells); assay: MTT cancer cell growth inhibition; format: cell-based; settings: Homo sapiens, K562, 72 h, MTT, 72 hours incubation, K562 cells; read-out: GI50 K562
Description: as §1, §2, §3, §4, §5, §6, §7

[15] = tested on: BGC-823 (human gastric cancer cells); assay: MTT cancer cell growth inhibition; format: cell-based; settings: Homo sapiens, BGC-823, 72 h, MTT, 72 hours incubation, read-out: GI50 BG
Description: as §1, §2, §3, §4, §5, §6, §7

[16] = tested on: U937 (human leukemia cells); assay: MTT cancer cell growth inhibition; format: cell-based; settings: Homo sapiens, U-937, 72 h, MTT, 72 hours incubation, read-out: GI50 U93
Description: as §1, §2, §3, §4, §5, §6, §7

[17] = tested on: H1975 (non-small cell lung adenocarcinoma); assay: MTT cancer cell growth inhibition; format: cell-based; settings: Homo sapiens, NCI-H1975, 72 h, MTT, 72 hours incubation, H1975 cells; read-out: GI50 H1975
Description: as §1, §2, §3, §4, §5, §6, §7

[18] = tested on: Hela (human cervical cancer cells); assay: MTT cancer cell growth inhibition; format: cell-based; settings: Homo sapiens, HeLa, 72 h, MTT, 72 hours incubation, read-out: GI50 Hela
Description: as §1, §2, §3, §4, §5, §6, §7

[19] = tested on: MDA-MB-231 (breast cancer cells); assay: MTT cancer cell growth inhibition; format: cell-based; settings: Homo sapiens, MDA-MB-231, 72 h, read-out: GI50 MDA-MB-231, MTT, 72 hours incubation, MDA-MB-231 cells
Description: as §1, §2, §3, §4, §5, §6, §7

[20] = tested on: KBM5-T315I (human chronic myelogenous leukemia); assay: MTT cancer cell growth inhibition; format: cell-based; settings: Homo sapiens, 72 h, MTT, 72 hours incubation, KBM5-T315I cells; read-out: GI50 KBM5-T315I
Description: as §1, §2, §3, §4, §5, §6, §7

Row | IC50 HDAC7 (HDAC7) | GI50 ([1]; PANC-1 cells) [nM] | GI50 [2] [nM] | GI50 [3] [nM] | GI50 ([4]; HT1080 cells) [nM] | GI50 ([5]; DU145 cells) [nM] | GI50 [6] [nM] | GI50 [7] [nM] | GI50 ([8]; MOLT-4 cells) [nM] | GI50 [9] [nM] | GI50 ([10]; lncap cells) [nM] | GI50 ([11]; A549 cells) [nM] | GI50 [12] [nM] | GI50 ([13]; MCF-7 cells) [nM] | GI50 [14] [nM] | GI50 ([15]; BGC-823 cells) [nM] | GI50 ([16]; U937 cells) [nM] | GI50 [17] [nM] | GI50 [19] [nM] | GI50 [20] [nM] | SMILES | also measured
1 | no activity | 50 | 53 | 96 | 80 | 60 | 27 | 54 | 50 | 75 | 10 | 20 | 32 | 40 | 55 | 30 | 20 | 19 | 35 | 28 | C/C=C1\NC(=O)c2nc(ccc2SC)CCNC(=O)C[C@@H](/C=C/CCSC(C)=O)OC(=O)[C@H](C(C)C)NC1=O [Compound 223] | GI50 ([18]; Hela cells): 50 nM
2 |  | 10 | 53 | 87 | 60 | 60 | 35 | 46 | 40 | 64 | 10 | 40 | 31 | 50 | 78 | 60 | 40 | 18 | 81 | 42 | C/C=C1\NC(=O)c2cc(SCC)cc(n2)CNC(=O)C[C@@H](/C=C/CCSC(=O)CCCCC)OC(=O)[C@H](C(C)C)NC1=O [Compound 254] | IC50 (μM) HDAC7 (HDAC7): no activity; GI50 ([18]; Hela cells): 40 nM
3 | no activity |  | 36 | 17 |  |  | 37 | 28 |  | 67 |  |  | 58 |  | 31 |  |  | 38 | 26 | 43 | C=C1NC(=O)c2cc(F)cc(n2)CNC(=O)C[C@@H](/C=C/CCS)OC(=O)[C@H](C)NC1=O [Compound 141] | GI50 [1]: 50 nM; GI50 [4]: 80 nM; GI50 [5]: 70 nM; GI50 [8]: 80 nM; GI50 [10]: 80 nM; GI50 [11]: 50 nM; GI50 [13]: 70 nM; GI50 [15]: 30 nM; GI50 [16]: 50 nM; GI50 [18]: 80 nM
